Data from patent US9051351B2, “Hepatocyte growth factor mimics as therapeutic agents” (Washington State University, priority 2011, dated 2015).
Entries after “also recorded” stand apart in the source; their conditions may differ. Counter-ions that a name gives are not always drawn. Like-named read-outs stand apart in the source and are kept apart here. Where a SMILES comes first, the peptide text is derived from it. [ ]: non-standard residue; d: D form. dNle = CCCC[C@@H](N)C(=O)O; Nle = CCCC[C@H](N)C(=O)O; GABA = NCCCC(=O)O

What was measured:
[1] = Serum metabolism of peptides in rat serum; format: in vitro ADME; settings: for half-life at 500 µg/mL: male, Sprague Dawley, rat, serum
Method: Four month old male Sprague Dawley rats were used as the blood source for the metabolism studies. Blood was collected from left/right jugular veins of the rats using sterile catheters. After a 30 minute incubation on ice, the blood was centrifuged at 1000 rpm for 15 min to separate the serum. Serum was then transferred to clean tubes and stored at −20° C. until use.
Except for dihexa all drug solutions were prepared in HPLC grade water at 5 mg/ml. Stock drugs were kept in powder form and stored at −20° C. Serum metabolism experimental procedure and analysis. Rat blood serum samples were pre-equilibrated at 37° C. and then 10 μL (50 μg) of each drug solution was added to 90 μL of rat serum in 1.5 mL Eppendorf tube maintained at 37° C. At specified time intervals, metabolism was terminated by precipitating proteins with the addition of 1 ml of a solution of acetonitrile (ACN) and acetic acid (9:1, v/v). The terminated reaction mixture was stored in refrigerator (5° C.) overnight and centrifuged (14,000 rpm) for 30 min to remove precipitated proteins. The separated supernatant was dried in vacuum concentrator. The dried samples were reconstituted using 200 μL HPLC mobile phase (10% v/v ACN in water), vortexed briefly, and subjected to HPLC separation and analysis. A serum blank experiment to detect any interfering peaks in the HPLC chromatogram was performed by in an identical manner except that no drug was added. Zero time values for each drug candidate were established by first treating the serum with ACN, processing the sample as described above, adding drug, and then performing HPLC analysis.
The degradation rate of drug was determined by measuring the decrease in area under curve (AUC) at the retention time of drug over time. The AUC obtained from the zero time experiment was considered to represent the “100%” drug concentration and was used to determine the decreased drug concentration at each specified time interval. The semi-logarithmic plot of drug concentration vs. time was generated to determine degradation kinetic constant (k) of the tested drug. The half-life of drug was (t1/2) was calculated by 0.693/k.
Analysis of samples was performed using an HPLC system. The system consisted of a communications bus module, pumps, and a photodiode array detector. Separation was achieved using a C18 (250 mm×4.6 mm id., 5 μm particle size) reverse phase column. The column temperature was set at 40° C. The mobile phase consisted of a mixture of ACN and water with 0.1% TFA and was degassed by ultrasonication. Samples were introduced by manual mode with an injection volume of 250 μL. The drug was eluted with a flow rate of 1 mL/min and detected by PDA detector at […] wavelengths of 215 and 280 nm.

hippocampal neurons = test: Dendritic spine counts (spinogenesis) in mRFP-β-actin transfected dissociated hippocampal neurons; format: cell-based, rat; settings: dose-response; 10^-8 and 10^-10 M
Method: Hippocampal neurons (2×10^5 cells per square cm) were cultured from P1 Sprague Dawley rats on plates coated with poly-L-lysine from Sigma (St. Louis, Mo.; molecular weight 300,000). […] Each experiment was repeated at least three times using independent culture preparations. […] Hippocampal neurons (2×10^5 cells per square centimeter) were cultured from P1-2 Sprague Dawley rats on plates coated with poly-L-lysine from Sigma (St. Louis, Mo.; molecular weight 300,000). Hippocampal neurons were maintained in Neurobasal A media from Invitrogen (Carlsbad, Calif.) supplemented with B27 from Invitrogen, 0.5 mM L-glutamine, and […] cytosine-D-arabinofuranoside from Sigma added at 2 days in vitro. Hippocampal neurons were then cultured a further 3-7 days, at which time they were either transfected or treated with various pharmacological reagents as described in the text or figure legends. Neurons were transfected with mRFP-β-actin on day in vitro 6 […] using LipofectAMINETM 2000 (Invitrogen) according to the manufacturer's protocol. […] On DIV7 the cells were treated with vehicle (H20) or peptides (as described in the text) added to media. […] Five 50 μm long segments of dendrite from at least 10 neurons per data point were analyzed for each data point reported. Each experiment was repeated at least three times using independent culture preparations. […] A target sequence for c-Met was designed using RNAi central design program (see the website located at […].edu/). The target sequence […] NO: 2) was inserted into pSUPER vector (Oligoengine, Seattle Wash.) which drives endogenous production of shRNA under the H1 promoter. The shRNA was transfected into cells using the lipofectamine method described above. Verification of receptor knockdown was done by creating a c-[…]-Myc tagged gene product using the Gateway cloning system (Invitrogen). The Met protein coding sequence was cloned from rat whole brain cDNA using primers obtained from Integrated DNA Technologies, Inc. The amplified product was gel purified and a band corresponding to 190 kDa band excised and cloned into a […] destination vector (Gateway). Hippocampal neurons (2×10^5 cells per square cm) were cultured from P1 Sprague Dawley rats on plates coated with poly-L-lysine from Sigma (St. Louis, Mo.; molecular weight […]).

scopolamine treated rats = test: Morris water maze, scopolamine amnesia model; format: in vivo, rat; settings: for mean latency to find the pedestal: icv, Dihexa, Hinge 300 pmol, scopolamine 70 nmol
Method: Swim speed was determined from these values.

[2] = rat serum, 37° C., Mean +/− SD, N = 3, read-out: Half-Life (min), serum stability

Compound: CCCC[C@@H](N)C(=O)N[C@@H](Cc1ccc(O)cc1)C(=O)N[C@H](C(=O)O)[C@@H](C)CC [D-Nle-Tyr-Ile] (H-[dNle]-Tyr-Ile-OH)
- half-life at 500 µg/mL [1, 2]: 225 min

Compound: CC[C@H](C)[C@H](NC(=O)[C@H](Cc1ccc(O)cc1)NC(=O)CCCN)C(=O)O [GABA-Tyr-Ile] (H-[GABA]-Tyr-Ile-OH; N-terminus and C-terminus assumed)
- half-life at 500 µg/mL [1, 2]: 946 min
- spine numbers, stabilized AngIV analogs (FIG. 31) (hippocampal neurons): did not appear to be the most potent generator of new dendritic spines
- time spent in the target quadrant, day 9 probe trial (scopolamine treated rats; scopolamine icv 70 nmol, analog icv 1 nmol): different than all the other treated groups
- latency to find the submerged platform in the Morris water maze (scopolamine treated rats; scopolamine icv 70 nmol, analog icv 1 nmol, 8 days): exhibited the best performance among the compound treated groups; also recorded: not significantly different than the vehicle control group
- time spent in the target quadrant, day 9 probe trial (scopolamine treated rats; scopolamine icv 70 nmol, analog icv 1 nmol, listed as GABA-Tyr): superior to all the other compound treated groups

Compound: CCCC[C@H](NC(C)=O)C(=O)N[C@@H](Cc1ccc(O)cc1)C(=O)N[C@H](C(=O)N[C@@H](Cc1c[nH]cn1)C(=O)O)[C@@H](C)CC [N-acetyl-Nle-Tyr-Ile-His] (Ac-[Nle]YIH-OH)
- half-life at 500 µg/mL [1, 2]: 115 min

Compound: CCCC[C@H](N)C(=O)N[C@@H](Cc1ccc(O)cc1)C(=O)N[C@H](C(=O)N[C@@H](Cc1cnc[nH]1)C(=O)N1CCC[C@H]1C(=O)N[C@@H](Cc1ccccc1)C(=O)O)[C@@H](C)CC [Nle1-AngIV, Norleucine-YIHPF, reference compound] (H-[Nle]YIHPF-OH)
- half-life at 500 µg/mL [1, 2]: 1.42 min
- half-life at 500 µg/mL ([1]; read-out: t1/2 in rat serum): 1.4 min
- Half-Life (min), serum stability ([1]; rat serum, 37° C., Mean +/− SD, N = 3): less than two minutes

Compound: CCCC[C@H](N)C(=O)N[C@@H](Cc1ccc(O)cc1)C(=O)N[C@H](C(=O)N[C@@H](Cc1c[nH]cn1)C(N)=O)[C@@H](C)CC [Nle-Tyr-Ile-His-NH2] (H-[Nle]YIH-NH2)
- half-life at 500 µg/mL [1, 2]: 23 min

Compound: CN1[C@@H]2C[C@@H](OC(=O)[C@H](CO)c3ccccc3)C[C@H]1[C@@H]1O[C@@H]12 [scopolamine, Scopolamine hydrobromide, reference compound]
- mean latency to find the pedestal (scopolamine treated rats; day one of training): 114.7 s
- mean latency to find the pedestal (scopolamine treated rats; final day of training (day 8)): 84.8 s
- mean latency to find the pedestal (scopolamine treated rats; fourth day of training): 102.4 s
